# In the supplement of paper PMC5844555:
# What was measured:
# Assay in all cases: 3' UTR reporter interaction score (median-centred robust z-score of log2 firefly/Renilla activity); higher = less repression of the 3' UTR reporter
# Conditions in all cases: HEK293T; 48 h
# BRCA2 = system: BRCA2
# Summary of the method: (§1)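 Firefly and Renilla luciferase activities were read 48 h post-transfection in HEK293T cells (10,000/well, 96-well plates). The cells had received 100 ng firefly luc2P reporter bearing the gene's 3' UTR, 20 ng Renilla pRL-TK control and 2.5 pmol miRNA mimic via DharmaFECT Duo. The interaction score, where more negative means interaction, is a per-plate robust z-score (median, median absolute deviation) of the log firefly/Renilla ratio, median-centred per miRNA and averaged over at least two independent screens.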
# EZH2 = system: EZH2
# Summary of the method: as §1
# FBXW7 = system: FBXW7
# Summary of the method: as §1
# HRAS = system: HRAS
# Summary of the method: as §1
# MYB = system: MYB
# Summary of the method: as §1
# MYCN = system: MYCN
# Summary of the method: as §1
# MYC = system: MYC
# Summary of the method: as §1
# MYT1L = system: MYT1L
# Summary of the method: as §1
# NOTCH1 = system: NOTCH1
# Summary of the method: as §1
# PHF6 = system: PHF6
# Summary of the method: as §1
# PHOX2B = system: PHOX2B
# Summary of the method: as §1
# RB1 = system: RB1
# Summary of the method: as §1
# TP53 = system: TP53
# Summary of the method: as §1
# ZEB2 = system: ZEB2
# Summary of the method: as §1
Sequence,3' UTR reporter interaction score (BRCA2),3' UTR reporter interaction score (EZH2),3' UTR reporter interaction score (FBXW7),3' UTR reporter interaction score (HRAS),3' UTR reporter interaction score (MYB),3' UTR reporter interaction score (MYCN),3' UTR reporter interaction score (MYC),3' UTR reporter interaction score (MYT1L),3' UTR reporter interaction score (NOTCH1),3' UTR reporter interaction score (PHF6),3' UTR reporter interaction score (PHOX2B),3' UTR reporter interaction score (RB1),3' UTR reporter interaction score (TP53),3' UTR reporter interaction score (ZEB2)
UGGUUGACCAUAGAACAUGCGC,-0.794,-1.23,-0.743,-0.568,2.68,1.49,-0.769,3.19,2.11,0.184,1.74,3.51,-0.14,2.61
UGGUUUACCGUCCCACAUACAU,-0.68,0.684,0.14,-0.0846,0.643,0.327,-0.285,1.3,-0.0746,-0.512,0.385,0.158,-0.635,1.07
UGUAAACAUCCCCGACUGGAAG,-0.00428,0.0787,0.0307,0.945,0.447,-1,-0.345,0.873,-0.121,0.331,0.775,1.18,-0.339,-1.09
UGUAAACAUCCUACACUCAGCU,0.276,0.233,0.842,1.01,0.789,-0.781,-0.616,0.998,-0.804,-1.63,-0.561,0.456,-0.377,-1.14
UGUAAACAUCCUACACUCUCAGC,0.774,-0.7,0.711,0.698,0.661,-0.445,-0.915,0.183,-1.62,0.545,0.58,0.235,0.239,-2.01
UGUAGUGUUUCCUACUUUAUGGA,-3.32,0.133,-0.472,0.941,0.85,1.22,0.753,1.44,-0.00364,-0.93,0.885,-0.511,-0.138,-2.54
UGUCACUCGGCUCGGCCCACUAC,1.08,0.621,0.218,-0.561,0.0813,0.184,-0.146,0.664,0.551,-0.284,-0.663,-0.766,0.457,-1.79
UGUCAGUUUGUCAAAUACCCC,-0.428,-0.235,-3.7,0.221,0.7,0.673,0.119,0.484,0.533,-0.327,1.35,0.229,-1.17,1.58
UGUCUGCCCGCAUGCCUGCCUCU,0.911,1.24,0.234,-2.78,-1.11,-1.48,-0.223,0.694,-0.629,1.55,-1.69,0.711,-0.199,-0.366
UGUCUUGCAGGCCGUCAUGCA,-0.496,-0.168,0.883,1.07,-0.711,-0.456,0.266,0.257,0.776,-0.169,0.814,1.34,-1.21,-2.19
UGUGACAGAUUGAUAACUGAAA,-1.43,0.213,-0.255,-0.136,0.185,0.0393,0.173,-1.77,1.11,-0.291,1.05,0.581,0.555,0.919
UGUGACUGGUUGACCAGAGGG,0.687,0.91,-1.25,-0.321,-1.86,-1.12,0.219,-0.108,0.462,0.602,0.929,-1.22,0.803,1.2
UGUGCAAAUCCAUGCAAAACUGA,-0.438,0.306,0.561,-1.63,-1.86,-3.09,0.638,-0.216,-0.355,0.456,-0.753,0.608,0.0709,-2.12
UGUGCAAAUCUAUGCAAAACUGA,-0.799,-0.0175,0.679,-1.18,-0.797,-2.74,-0.0223,0.342,-0.179,0.299,0.393,0.548,0.088,-1.34
UGUGCUUGCUCGUCCCGCCCGCAG,0.879,-0.199,-0.0879,-0.789,-0.522,-0.114,0.429,0.198,0.256,1.4,0.4,0.514,-0.328,0.763
UGUGUCACUCGAUGACCACUGU,0.0202,1.04,1.58,1.13,-0.364,0.203,0.947,-1.73,-1.12,-0.745,0.976,-0.876,0.4,0.295
UGUUUGCAGAGGAAACUGAGAC,-0.0179,0.739,-1.52,1.34,1.43,0.322,0.778,-0.13,-0.933,-0.0326,-0.484,-0.175,-0.173,-1.2
